# In patent US20080207522A1, “Antimicrobial Peptides” (priority 2004, published 2008):
# Ends that are not written are not given here.
# Assays:
# [1] = tested on: Staphylococcus aureus ATCC25923; settings: ATCC25923
# Protocol: (§1) Minimal inhibitory concentration (MIC) determination. The MICs of the peptides were measured using a modified broth microdilution method in Mueller Hinton (MH) medium. Wu et al., J. Biol. Chem. 274: 29-35, 1999. Briefly, the peptides were dissolved and stored in glass vials. The assay was performed in sterile 96-well polypropylene microtitre plates were used. Serial dilutions of the peptides to be assayed were performed in 0.01% acetic acid (Fisher) containing 0.2% bovine serum albumin (Boehringer Mannheim GmbH) at 10× the desired final concentration. Ten microlitres of the 10× peptides were added to each well of a 96-well polypropylene plate containing 90 μl of MH media per well. Bacteria were added to the plate from an overnight culture at 2-7×10^5 colony forming units/ml and incubated over night at 37° C. The MIC was taken as the concentration at which no growth was observed.
# (§2) Strains. For the killing assay a mini-Tn5-lux mutant in Pseudomonas aeruginosa H103 was used. The strain is called H1001 and contains a fliC::luxCDABE transcriptional fusion resulting in constitutive expression of luciferase. The bacterial strains used for the antimicrobial activity assays included Escherichia coli UB1005 (F-, nalA37, metB1), a wild-type Salmonella enterica ssp. Typhimurium (S. Typhimurium), wild-type Pseudomonas aeruginosa PAO1 strain H103, Enterococcus faecalis ATCC29212, Staphylococcus aureus ATCC25923, and a clinical isolate of Staphylococcus epidermidis obtained from Dr. D. Speert (Department of Medicine, University of British Columbia). Antifungal activity was tested using a lab isolate of Candida albicans obtained from Dr. B. Dill (Department of Microbiology and Immunology, University of British Columbia).
# (§3) In addition, the parent peptide Bac2A was included in these studies as a standard. The minimal inhibitory concentrations (MIC) were determined for the important medical pathogens Pseudomonas aeruginosa, Escherichia coli, Salmonella typhimurium, Staphylococcus aureus, Staphylococcus epidermidis, Enterococcus faecaelis, and the yeast Candida albicans in Mueller-Hinton media.
# [2] = tested on: Staphylococcus epidermidis
# Protocol: as §1, §2, §3
# [3] = tested on: Salmonella enterica ssp. Typhimurium; settings: ssp. Typhimurium
# Protocol: as §1, §2, §3
# Candida albicans = tested on: Candida albicans
# Protocol: as §1, §2, §3
# [4] = tested on: Pseudomonas aeruginosa PAO1 strain H103; settings: PAO1
# Protocol: as §1, §2, §3
# [5] = tested on: Enterococcus faecalis ATCC29212; settings: ATCC29212
# Protocol: as §1, §2, §3
Substance,MIC S. aureus [1] [µg/mL],MIC S. epi. [2] [µg/mL],MIC S. Typhim. [3] [µg/mL],MIC C. albicans (Candida albicans) [µg/mL],MIC P. aerug [4] [µg/mL],MIC E. faecalis [5] [µg/mL]
GLARIVVIRVAR-NH2 (C-terminus assumed) [Bac206],63,16,63,125,125,31
KIWVIRWR-NH2 (C-terminus assumed) [Bac434],16,4,31,16,16,16
LARIVVIRVAR-NH2 (C-terminus assumed) [Bac102],83,11,>83,83,83,46
RGARIVVIRVAR-NH2 (C-terminus assumed) [Bac225],31,16,31,16,31,31
RIWVIRWR-NH2 (C-terminus assumed) [Bac435],4,4,16,16,16,8
RIWVIWRR-NH2 (C-terminus assumed) [Bac436],2,2,8,8,8,2
RLARIVKIRVAR-NH2 (C-terminus assumed) [Bac323],125,31,63,31,31,125
RLARIVVFRVAR-NH2 (C-terminus assumed) [Bac338],>250,>250,>250,>250,>250,>250
RLARIVVIRV-NH2 (C-terminus assumed) [Bac103],46,11,46,23,46,23
RLARIVVIRVA-NH2 (C-terminus assumed) [Bac101],63,16,31,63,63,31
